Values quoted from earlier work in PubChem BioAssay AID1259409 (Chemical Carcinogenesis Research Information System (CCRIS), 2018).

System: rodent chemically induced tumor inhibition, incidence and multiplicity
Test: CCRIS tumor inhibitor studies
Details: Route [Inhibitor]: ORAL

SMILES: Cc1c(-c2cnccn2)ssc1=S
- tumour outcome (control, treated, inhibition, significance) (Carcinogen: NITROSOBIS(2-OXOPROPYL)AMINE [60599-38-4], Dose [Inhibitor]: 200 PPM IN DIET FOR 4 WK BEGINNING 1 WK PRIOR TO FIRST CARCINOGEN DOSE (STUDY DURATION: 52 WK), Species: HAMSTER, Strain/Sex: SYRIAN/FEMALE, Target Tissue: Type of Lesion: LIVER: HEPATOCELLULAR ADENOMA, Dose [Carcinogen]: 10 MG/KG BW 1X/WK FOR 3 WK (STUDY DURATION: 52 WK)): 16.7%, 20.7%, -24%, not significant
- tumour outcome (control, treated, inhibition, significance) (Carcinogen: NITROSOBIS(2-OXOPROPYL)AMINE [60599-38-4], Dose [Inhibitor]: 200 PPM IN DIET FOR 4 WK BEGINNING 1 WK PRIOR TO FIRST CARCINOGEN DOSE (STUDY DURATION: 52 WK), Species: HAMSTER, Strain/Sex: SYRIAN/FEMALE, Target Tissue: Type of Lesion: LIVER: HEPATOCELLULAR CARCINOMA, Dose [Carcinogen]: 10 MG/KG BW 1X/WK FOR 3 WK (STUDY DURATION: 52 WK)): 6.7%, 6.9%, -3%, not significant
- tumour outcome (control, treated, inhibition, significance) (Carcinogen: NITROSOBIS(2-OXOPROPYL)AMINE [60599-38-4], Dose [Inhibitor]: 200 PPM IN DIET FOR 4 WK BEGINNING 1 WK PRIOR TO FIRST CARCINOGEN DOSE (STUDY DURATION: 52 WK), Species: HAMSTER, Strain/Sex: SYRIAN/FEMALE, Target Tissue: Type of Lesion: LUNG: ADENOCARCINOMA, Dose [Carcinogen]: 10 MG/KG BW 1X/WK FOR 3 WK (STUDY DURATION: 52 WK)): 46.7%, 37.9%, 19%, not significant
- tumour outcome (control, treated, inhibition, significance) (Carcinogen: NITROSOBIS(2-OXOPROPYL)AMINE [60599-38-4], Dose [Inhibitor]: 200 PPM IN DIET FOR 4 WK BEGINNING 1 WK PRIOR TO FIRST CARCINOGEN DOSE (STUDY DURATION: 52 WK), Species: HAMSTER, Strain/Sex: SYRIAN/FEMALE, Target Tissue: Type of Lesion: LUNG: ADENOMA, Dose [Carcinogen]: 10 MG/KG BW 1X/WK FOR 3 WK (STUDY DURATION: 52 WK)): 86.7%, 75.9%, 12%, not significant
- tumour outcome (control, treated, inhibition, significance) (Carcinogen: NITROSOBIS(2-OXOPROPYL)AMINE [60599-38-4], Dose [Inhibitor]: 200 PPM IN DIET FOR 4 WK BEGINNING 1 WK PRIOR TO FIRST CARCINOGEN DOSE (STUDY DURATION: 52 WK), Species: HAMSTER, Strain/Sex: SYRIAN/FEMALE, Target Tissue: Type of Lesion: PANCREAS: ADENOCARCINOMA, Dose [Carcinogen]: 10 MG/KG BW 1X/WK FOR 3 WK (STUDY DURATION: 52 WK)): 13/30 (43.3%), 20/29 (68.9%), -59%, not significant
- tumour outcome (control, treated, inhibition, significance) (Carcinogen: NITROSOBIS(2-OXOPROPYL)AMINE [60599-38-4], Dose [Inhibitor]: 400 PPM IN DIET FOR 4 WK BEGINNING 1 WK PRIOR TO FIRST CARCINOGEN DOSE (STUDY DURATION: 52 WK), Species: HAMSTER, Strain/Sex: SYRIAN/FEMALE, Target Tissue: Type of Lesion: GALL BLADDER: ADENOMA, Dose [Carcinogen]: 10 MG/KG BW 1X/WK FOR 3 WK (STUDY DURATION: 52 WK)): 13.3%, 21.1%, -59%, not significant
- tumour outcome (control, treated, inhibition, significance) (Carcinogen: NITROSOBIS(2-OXOPROPYL)AMINE [60599-38-4], Dose [Inhibitor]: 400 PPM IN DIET FOR 4 WK BEGINNING 1 WK PRIOR TO FIRST CARCINOGEN DOSE (STUDY DURATION: 52 WK), Species: HAMSTER, Strain/Sex: SYRIAN/FEMALE, Target Tissue: Type of Lesion: KIDNEY: RENAL CELL ADENOMA, Dose [Carcinogen]: 10 MG/KG BW 1X/WK FOR 3 WK (STUDY DURATION: 52 WK)): 3.3%, 3.4%, -3%, not significant
- tumour outcome (control, treated, inhibition, significance) (Carcinogen: NITROSOBIS(2-OXOPROPYL)AMINE [60599-38-4], Dose [Inhibitor]: 400 PPM IN DIET FOR 4 WK BEGINNING 1 WK PRIOR TO FIRST CARCINOGEN DOSE (STUDY DURATION: 52 WK), Species: HAMSTER, Strain/Sex: SYRIAN/FEMALE, Target Tissue: Type of Lesion: KIDNEY: RENAL CELL CARCINOMA, Dose [Carcinogen]: 10 MG/KG BW 1X/WK FOR 3 WK (STUDY DURATION: 52 WK)): 6.7%, 10.3%, -54%, not significant
- tumour outcome (control, treated, inhibition, significance) (Carcinogen: NITROSOBIS(2-OXOPROPYL)AMINE [60599-38-4], Dose [Inhibitor]: 400 PPM IN DIET FOR 4 WK BEGINNING 1 WK PRIOR TO FIRST CARCINOGEN DOSE (STUDY DURATION: 52 WK), Species: HAMSTER, Strain/Sex: SYRIAN/FEMALE, Target Tissue: Type of Lesion: LIVER: CHOLANGIOCELLULAR ADENOMA, Dose [Carcinogen]: 10 MG/KG BW 1X/WK FOR 3 WK (STUDY DURATION: 52 WK)): 6.7%, 0.0%, 100%, not significant
- outcome (Carcinogen: NITROSOBIS(2-OXOPROPYL)AMINE [60599-38-4], Dose [Inhibitor]: 400 PPM IN DIET FOR 4 WK BEGINNING 1 WK PRIOR TO FIRST CARCINOGEN DOSE (STUDY DURATION: 52 WK), Species: HAMSTER, Strain/Sex: SYRIAN/FEMALE, Target Tissue: Type of Lesion: LIVER: CHOLANGIOCELLULAR CARCINOMA, Dose [Carcinogen]: 10 MG/KG BW 1X/WK FOR 3 WK (STUDY DURATION: 52 WK)): 0.0%, 7.1%, -100%, not significant
- tumour outcome (control, treated, inhibition, significance) (Carcinogen: NITROSOBIS(2-OXOPROPYL)AMINE [60599-38-4], Dose [Inhibitor]: 400 PPM IN DIET FOR 4 WK BEGINNING 1 WK PRIOR TO FIRST CARCINOGEN DOSE (STUDY DURATION: 52 WK), Species: HAMSTER, Strain/Sex: SYRIAN/FEMALE, Target Tissue: Type of Lesion: LIVER: HEPATOCELLULAR ADENOMA, Dose [Carcinogen]: 10 MG/KG BW 1X/WK FOR 3 WK (STUDY DURATION: 52 WK)): 16.7%, 14.3%, 14%, not significant
- tumour outcome (control, treated, inhibition, significance) (Carcinogen: NITROSOBIS(2-OXOPROPYL)AMINE [60599-38-4], Dose [Inhibitor]: 400 PPM IN DIET FOR 4 WK BEGINNING 1 WK PRIOR TO FIRST CARCINOGEN DOSE (STUDY DURATION: 52 WK), Species: HAMSTER, Strain/Sex: SYRIAN/FEMALE, Target Tissue: Type of Lesion: LIVER: HEPATOCELLULAR CARCINOMA, Dose [Carcinogen]: 10 MG/KG BW 1X/WK FOR 3 WK (STUDY DURATION: 52 WK)): 6.7%, 7.1%, -6%, not significant
- tumour outcome (control, treated, inhibition, significance) (Carcinogen: NITROSOBIS(2-OXOPROPYL)AMINE [60599-38-4], Dose [Inhibitor]: 400 PPM IN DIET FOR 4 WK BEGINNING 1 WK PRIOR TO FIRST CARCINOGEN DOSE (STUDY DURATION: 52 WK), Species: HAMSTER, Strain/Sex: SYRIAN/FEMALE, Target Tissue: Type of Lesion: LUNG: ADENOCARCINOMA, Dose [Carcinogen]: 10 MG/KG BW 1X/WK FOR 3 WK (STUDY DURATION: 52 WK)): 46.7%, 17.2%, 63%, p<0.05
- tumour outcome (control, treated, inhibition, significance) (Carcinogen: NITROSOBIS(2-OXOPROPYL)AMINE [60599-38-4], Dose [Inhibitor]: 400 PPM IN DIET FOR 4 WK BEGINNING 1 WK PRIOR TO FIRST CARCINOGEN DOSE (STUDY DURATION: 52 WK), Species: HAMSTER, Strain/Sex: SYRIAN/FEMALE, Target Tissue: Type of Lesion: LUNG: ADENOMA, Dose [Carcinogen]: 10 MG/KG BW 1X/WK FOR 3 WK (STUDY DURATION: 52 WK)): 86.7%,58.6%, 32%, p<0.05
- tumour outcome (control, treated, inhibition, significance) (Carcinogen: NITROSOBIS(2-OXOPROPYL)AMINE [60599-38-4], Dose [Inhibitor]: 400 PPM IN DIET FOR 4 WK BEGINNING 1 WK PRIOR TO FIRST CARCINOGEN DOSE (STUDY DURATION: 52 WK), Species: HAMSTER, Strain/Sex: SYRIAN/FEMALE, Target Tissue: Type of Lesion: PANCREAS: ADENOCARCINOMA, Dose [Carcinogen]: 10 MG/KG BW 1X/WK FOR 3 WK (STUDY DURATION: 52 WK)): 13/30 (43.3%), 19/28 (67.9%), -57%, not significant
- tumour outcome (control, treated, inhibition, significance) (Dose [Inhibitor]: 0, 0.075% IN DIET FOR 4 WK BEGINNING 1 WK PRIOR TO CARCINOGEN TREATMENT (STUDY DURATION: 23 MO), Species: RAT, Strain/Sex: F344/MALE, Target Tissue: Type of Lesion: LIVER: ADENOMA, Dose [Carcinogen]: 25 UG IN 0.1 ML TRICAPRYLIN 5 D/WK FOR 2 WK, Promoter: NONE USED): 4/45 (9%), 0/46 (0%), 100%, p<0.05
- tumour outcome (control, treated, inhibition, significance) (Dose [Inhibitor]: 0, 0.075% IN DIET FOR 4 WK BEGINNING 1 WK PRIOR TO CARCINOGEN TREATMENT (STUDY DURATION: 23 MO), Species: RAT, Strain/Sex: F344/MALE, Target Tissue: Type of Lesion: LIVER: CARCINOMA, Dose [Carcinogen]: 25 UG IN 0.1 ML TRICAPRYLIN 5 D/WK FOR 2 WK, Promoter: NONE USED): 5/45 (11%), 0/46 (0%), 100%, p<0.05
